Results published in US5795885A, “Method of inhibiting profileration of cells by administering an aminosterol compound” (priority 1995, dated 1998).
Values after ≈ are worked out from the molar mass of the structure shown. Like-named read-outs stand apart in the source and are kept apart here.

Assays:
[1] = test system: S. aureus; assay: antibiotic activity (MIC); assay type: cell-based; settings: Staphylococcus aureus
[2] = test system: P. aerug; assay: antibiotic activity (MIC); assay type: cell-based
[3] = test system: E. Coli; assay: antibiotic activity (MIC); assay type: cell-based; settings: Escherichia coli, read-out: MIC, E. Coli
[4] = test system: chick embryo vitelline capillaries; assay: chick embryo vitelline capillary regression assay; assay type: in vivo; set-up: key to vitelline capillary regression: +: Vascular reactivity; 0: No vascular reactivity; +/-: Equivocal reactivity; settings: for vitelline capillary regression: 60 minutes
Summary of the method: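 Compounds applied to 3- to 5-day chick embryos in 0.1 ml of 15% Ficol 400 in PBS. Regression of vitelline capillaries, seen as pinching-off of capillary loops into enclosed sacs, was scored visually after 60 minutes.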

[5] = test system: PHA-stimulated human lymphocytes; assay: inhibition of mitogen (PHA)-stimulated growth of human T-cells; assay type: cell-based; settings: Homo sapiens, Lymphocyte, read-out: inhibition of PHA-stimulated human lymphocytes (% control); for inhibition at 1 µg/mL: 1 μg/ml; for inhibition at 5 µg/mL: 5 μg/ml; for inhibition at 10 µg/mL: 10 μg/ml
Excerpt: Results are tabulated below.

[6] = assay type: physicochemical
Excerpt: Compound 1361 was isolated from shark liver preparations in two different ways: first, as a degradation product of compound 1360; and, subsequently,as a minor aminosterol component fractionating with slightly faster retention time than squalamine during preparative C18 RP-HPLC (component of Fraction VI). In early attempts to purify each aminosterol to homogeneity, pooled fractions from C18 RP-HPLC were subjected to silica gel flash chromatography with CH2 Cl2 :CH30 H:NH4 OH 6:3:1, and the aminosterols were assayed on TLC plates. The pools of free base steroids were then re-subjected to C18 RP-HPLC, using an analytical column.

[7] = test system: stage 59-60 Xenopus tadpoles; settings: for pharmacological response in tadpole: 10 μg/ml in water
[8] = test system: Human ovarian carcinoma SKOV3; assay: growth inhibition in vitro (Baker et al.); assay type: cell-based; settings: 10 μg/ml
Description: (§1) As set forth in Table 7 below, all malignant tumors evaluated in tissue culture, endothelial cells and vascular smooth muscle cells were sensitive to inhibition. Thus, compound 1436 has application in the control of growth factor dependent proliferation of many types of tissue.
Using the assay described above, the anticancer effects of compound 1437 against several cancer lines was assessed.

[9] = test system: B16 melanoma; assay: B16 melanoma growth in C57B mice; assay type: in vivo, mouse
Description: The growth of B16 melanoma in C57B mice is dependent upon neovascularization.
Using the growth of B16 melanoma cells in C57B mice, a recognized model for the evaluation of inhibitors of angiogenesis on the growth of cancers, the effects of subcutaneous, intraperitoneal and oral administration of squalamine were evaluated.
Based on the idea that tumor growth involves both the clonal expansion of a malignant cell along with the development of a supporting vascular supply, a combination of compound 1436 with squalamine was tested to determine whether it would achieve a synergistic effect on solid tumor growth. This concept was evaluated in the B16 melanoma model.
Animals were implanted with B16 melanoma followed by treatment with compound 1436 or 1256 administered in a combined schedule or separately. […] Thus, a combination of these two compounds achieves a therapeutic benefit in tumors dependent on neovascularization that may prevent metastatic spread.

[10] = test system: heart of a juvenile Xenopus laevis frog; assay: ex vivo beating of isolated frog heart; settings: 10 μg/ml; Krebs-Ringer with adrenaline 50 μg/ml; about one hour without compound
Description: To determine if compound 1436 has such utility, the following experiment was performed. The heart of a juvenile Xenopus laevis frog was dissected from the living animal. The heart was placed into a Petri dish containing Krebs-Ringer buffer with adrenaline 50 μg/ml, and examined with the naked eye. At room temperature, the heart continued beating in a coordinated fashion (atrial beat followed by ventricular beat) for about one hour. In the presence of 10 μg/ml of compound 1436, spontaneous beating persisted up to 24 hours.

[11] = target: rabbit NHE3 (Oryctolagus cuniculus, UniProt P26432); settings: 10 μg/ml; acid preloaded by 40 mM NH4Cl
Sequence of rabbit NHE3 (P26432 30-832): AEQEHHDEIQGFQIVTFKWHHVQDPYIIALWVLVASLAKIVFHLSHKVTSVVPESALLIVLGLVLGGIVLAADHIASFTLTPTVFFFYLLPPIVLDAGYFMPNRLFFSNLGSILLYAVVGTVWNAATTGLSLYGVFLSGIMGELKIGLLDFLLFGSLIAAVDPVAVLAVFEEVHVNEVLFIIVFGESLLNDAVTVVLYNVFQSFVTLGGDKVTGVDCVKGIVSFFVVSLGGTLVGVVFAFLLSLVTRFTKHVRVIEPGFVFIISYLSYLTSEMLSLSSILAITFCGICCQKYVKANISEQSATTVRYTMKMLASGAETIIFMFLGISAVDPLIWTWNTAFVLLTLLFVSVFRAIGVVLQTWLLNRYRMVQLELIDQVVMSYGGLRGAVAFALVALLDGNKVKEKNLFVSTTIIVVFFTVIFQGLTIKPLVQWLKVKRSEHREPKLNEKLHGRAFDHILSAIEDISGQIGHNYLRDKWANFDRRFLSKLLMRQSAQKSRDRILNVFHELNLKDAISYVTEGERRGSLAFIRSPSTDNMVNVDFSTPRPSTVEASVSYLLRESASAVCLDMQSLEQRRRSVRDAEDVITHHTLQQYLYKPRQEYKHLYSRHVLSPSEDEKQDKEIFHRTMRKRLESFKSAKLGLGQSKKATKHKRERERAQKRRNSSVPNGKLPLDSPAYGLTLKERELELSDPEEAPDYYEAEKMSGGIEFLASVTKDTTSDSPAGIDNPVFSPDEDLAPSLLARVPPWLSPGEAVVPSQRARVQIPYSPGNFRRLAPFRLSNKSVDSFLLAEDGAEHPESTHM
Description: Internal pH was measured either following acid loading or in the absence of an acid-loading challenge, with the results shown in FIGS. 1A and 1B.
Specifically, PS120 fibroblasts transfected with rabbit NHE3 were grown in supplemented Dulbecco's-modified Eagle's medium as described by Levine et al., J. Biol. Chem. 268, 1993, 25527-25535. […] For cells not acid-preloaded, the actual internal pH value was monitored as a function of time following addition of squalamine, with the results depicted in FIG. 1B.
PS120 fibroblasts transfected with rabbit NHE3 were grown and acid preloaded by exposure to 40 mM NH4 Cl as described above in conjunction with FIGS. 1A and 1B. Internal cellular pH changes expressed as the rate of pH recovery as a function of restored extracellular sodium ion concentration following exposure to 10 μg/ml of the compound were assayed with the fluorescent dye BCECF-AM as described above.

[12] = test system: fasting blood glucose; assay: fasting blood glucose in mice; assay type: in vivo, Male CD-1 mice; settings: intravenous
Description: To study the effect of steroid administrator or the NHE responsible for secretion of insulin, several of the aminosterols from shark liver were administered to fasting mice. Male CD-1 mice were assigned to one of four treatment groups. Whole blood glucose was tested using glucometer (Lifescan Glucometer II and One Touch test strips). Statistical analysis was via one-way analysis of variance (ANOVA) followed by subsequent Bonferonni's t-test.

[13] = test system: L1210 lymphoblastic leukemia; assay: mouse model of L1210 leukemia; assay type: in vivo, C57B mice
[14] = test system: human umbilical venous endothelial cells; assay: growth inhibition in vitro (Baker et al.); assay type: cell-based; settings: 10 μg/ml
Excerpt: as §1

[15] = test system: Human melanoma WM 1617; assay: growth inhibition in vitro (Baker et al.); assay type: cell-based; settings: 10 μg/ml
Excerpt: as §1

[16] = test system: Murine L1210 leukemia; assay: growth inhibition in vitro (Baker et al.); assay type: cell-based; settings: 10 μg/ml
Excerpt: as §1

[17] = test system: Human colon carcinoma HT29; assay: growth inhibition in vitro (Baker et al.); assay type: cell-based; settings: 10 μg/ml
Excerpt: as §1

[18] = test system: Human microvascular endothelial cells; assay: growth inhibition in vitro (Baker et al.); assay type: cell-based; settings: 10 μg/ml
Excerpt: as §1

[19] = test system: Human colon carcinoma SW948; assay: growth inhibition in vitro (Baker et al.); assay type: cell-based; settings: 10 μg/ml
Excerpt: as §1

[20] = test system: Human coronary artery smooth muscle cells; assay: growth inhibition in vitro (Baker et al.); assay type: cell-based; settings: 10 μg/ml
Excerpt: as §1

[21] = test system: bovine pulmonary endothelial cells; assay: growth inhibition in vitro (Baker et al.); assay type: cell-based; settings: 10 μg/ml
Excerpt: as §1

[22] = growth and weight gain in growing mice; assay type: in vivo, C57B mice
Description: Animals were dosed QTD (i.p.) starting on Day 1. […] Animals receiving 5 mg/kg QTD experienced about a 50% reduction in growth, compared to untreated controls, while animals receiving 1 mg/kg QTD were affected by about 10%. […] They appeared very much like hypophysectamized animals might appear.

[23] = test system: Lewis lung carcinoma; assay: growth inhibition / cytotoxicity in vitro; assay type: cell-based; settings: 10 μg/ml
Excerpt: as §1

[24] = test system: Murine B16 melanoma; assay: growth inhibition in vitro; assay type: cell-based; settings: 10 μg/ml
Excerpt: as §1

[25] = test system: human coronary artery smooth muscle; assay: proliferation of human coronary artery smooth muscle in vitro; assay type: cell-based
Excerpt: Aminosterols of the invention may also have utility in inhibiting the growth factor mediated proliferation of smooth muscle within the artery. Following coronary angioplasty, reocclusion commonly occurs, secondary to reparative proliferation of the vascular smooth muscle within the wall of the surgically manipulated blood vessel. This process generally takes place over the course of 7-10 days. To evaluate whether an agent could prevent the growth factor mediated proliferation of smooth muscle within the artery, compound 1436 was evaluated in vitro for its effect on the proliferation of human coronary artery smooth muscle. Results for compound 1436 are shown in FIG. 13, and those for squalamine are shown in FIG. 14, with FIG. 15 being a composite logarithmic plot.

[26] = test system: arterial pressure; assay: arterial pressure in the rat after i.v. administration; assay type: in vivo
Description: A 200-g rat was catheterized in the right carotid artery, and the compound was introduced over a ten-second period to a total dosage of 5 mg/kg. Within 30 seconds, the mean arterial pressure had fallen from about 100 mm Hg to about 70 mm Hg, with a marked reduction in pulse pressure from about 40 mm to about 10 mm. […] If cardiac output was basically unaffected, reduction in blood pressure would have resulted principally from a reduction in system resistance.
At that time, 40 μg of noradrenaline was introduced.

[27] = test system: HM; assay: HM MTT assay; assay type: cell-based; settings: Table II; read-out: Minimum Effective Concentration, HM MTT assay

## CC(C)CCC[C@@H](C)[C@H]1CC[C@H]2[C@@H]3CC[C@H]4C[C@H](NCCCN5CCCCN=C5N)CC[C@]4(C)[C@H]3CC[C@]12C
[1]
  MIC: 2 µg/mL (≈ 3.7 µM)

## COC(=O)CCC(C)[C@H]1CCC2C3C[C@@H](O)[C@H]4C[C@H](NCCN)CC[C@]4(C)C3CC[C@@]21C (some centres unmarked)
[2]
  MIC: 128 µg/mL (≈ 285 µM)
[3]
  MIC: 32 to 44 µg/mL (≈ 71.3 to 98.1 µM)

## CC(COS(=O)(=O)O)C(=O)CC[C@@H](C)[C@H]1CC[C@H]2[C@@H]3[C@H](O)C[C@H]4C[C@@H](NCCCNCCCCN)CC[C@]4(C)[C@H]3CC[C@]12C (single isomer, unassigned) [Compound 1360]
[4]; 1 μg applied
  vitelline capillary regression: 0
[4]; within 20 minutes
  effect on blood color in chick embryo: the blood circulating through the embryonic vessels exhibited a brighter red color
[5]
  inhibition at 1 µg/mL: 5%
  inhibition at 5 µg/mL: 5%
  inhibition at 10 µg/mL: 5%
[6]
  chemical stability: undergoes a dehydration of the 27 hydroxyl, loss of sulfate, and generation of the corresponding 27-ene
[7]
  pharmacological response in tadpole: Swelling and lysis of certain erythrocytes occurred, resulting in accumulation of nuclei within certain small vessels of the tail. Subsequent tissue breakdown occurred in areas of tail surrounding these nuclear plugs.
[7]; listed as compound 1360
  pharmacological response in tadpole: extensive vasocclusion occurred within 60 minutes throughout the tail

## CC(C)[C@@H](CC[C@@H](C)[C@H]1CC[C@H]2[C@@H]3[C@H](O)C[C@H]4C[C@@H](NCCCNCCCCNCCCN)CC[C@]4(C)[C@H]3CC[C@]12C)OS(=O)(=O)O [Compound 1436]
[4]; 0.001 μg applied
  vitelline capillary regression: +/-
[4]; 0.01 μg applied
  vitelline capillary regression: +
[4]; 0.1 μg applied
  vitelline capillary regression: +
[4]; 1 μg applied
  vitelline capillary regression: +
[4]; 10 μg applied
  vitelline capillary regression: +
[4]; in vivo
  effect on chick embryo vitelline capillaries (in words): causes vitelline capillary regression with about the same potency as squalamine
[8]
  cancer cells inhibited in vitro: INHIBITED
[5]
  inhibition at 1 µg/mL: 20%
  inhibition at 5 µg/mL: 50%
  inhibition at 10 µg/mL: 80%
[9]; compound 1436 alone 10 mg/kg/every 3 days
  impact on tumor volume: no significant impact on tumor volume
[9]; squalamine 15 mg/kg/day, compound 1436 alone in a tolerable schedule
  tumor growth, single agent: Neither administration of squalamine at 15 mg/kg/day nor compound 1436 alone in a tolerable schedule could achieve this effect
[7]; in vivo
  time to death of tadpole: about 2 hours
[7]; squalamine at 10 μg/ml
  tadpole tail capillary occlusion: common vascular occlusive effect
[10]
  persistence of spontaneous beating of isolated heart: up to 24 hours
[11]
  inhibition of rabbit NHE3: found to inhibit rabbit NHE3
[12]
  hyperglycemia: caused hyperglycemia in mice
[13]; highest dose (10 mg/kg every 3 days i.p.)
  survival: significant prolongation of life
[13]; mouse, in vivo
  granulocyte count: robust granulocyte count
  hematocrit: near normal hematocrit
[14]
  non-transformed cells inhibited in vitro: INHIBITED
[15]
  cancer cells inhibited in vitro: INHIBITED
[16]
  cancer cells inhibited in vitro: INHIBITED
[17]
  cancer cells inhibited in vitro: INHIBITED
[18]
  non-transformed cells inhibited in vitro: INHIBITED
[19]
  cancer cells inhibited in vitro: INHIBITED
[20]
  non-transformed cells inhibited in vitro: INHIBITED
[21]
  non-transformed cells inhibited in vitro: INHIBITED
[22]; 1 mg/kg QTD i.p.
  reduction in growth of mice: about 10%
[22]; 10 mg/kg QTD i.p., about 1 month
  suppression of growth of mice: growth was almost completely inhibited
[22]; mouse, in vivo
  health of treated animals: all were active, normally proportioned, not-cachectic, and in excellent apparent clinical health
[23]
  cancer cells inhibited in vitro: INHIBITED
[24]
  cancer cells inhibited in vitro: INHIBITED
[25]; FIG. 15
  suppression of growth (in words): suppress in vitro the growth of human coronary artery smooth muscle
[25]; about 11 μg/ml
  viability: without loss of viability
[26]; 40 μg noradrenaline at 30 minutes
  reversibility of effect: readily reversible
[26]; 5 mg/kg i.v.
  duration of effect on arterial pressure: followed for 30 minutes, without significant change
  heart rate: no significant increase in heart rate was observed
  time to fall in arterial pressure: ≤ 30 s
[26]; 5 mg/kg i.v., from about 40 mm
  pulse pressure after dosing: about 10 mm
[26]; 5 mg/kg i.v., from about 100 mm Hg
  mean arterial pressure after dosing: about 70 mm Hg

## COC(=O)CCC(C)[C@H]1CCC2C3CC[C@H]4C[C@H](NCCCNCCCCNCCCN)CC[C@]4(C)C3CC[C@@]21C (some centres unmarked) [drawing 108]
[27]
  minimal effective concentration: 6.8 µg/mL
